# Data reported in patent publication US10736883B2, “Triazole furan compounds as agonists of the APJ receptor” (AMGEN INC., priority 2016, dated 2020).
# Key:
# APJ receptor [1] = target: T1, APJ receptor (Homo sapiens (Human), UniProt P35414); conditions: apelin-36, apelin-17 and apelin-13 compared; cited from earlier work
# [2] = tested on: ex vivo naive Sprague Dawley rat hearts; experiment: Langendorff isolated perfused rat heart (ex vivo); conditions: Langendorff apparatus
# From the text: FIG. 1A is a graph of left ventricular dP/dtmax as a function of concentration of Example 210.0 compared with vehicle in ex vivo naive Sprague Dawley rat hearts obtained using the Langendorff apparatus.
# FIG. 1B is a graph of left ventricular dP/dtmin as a function of concentration of Example 210.0 compared with vehicle in ex vivo naive Sprague Dawley rat hearts obtained using the Langendorff apparatus.
# FIG. 2A is a graph of left ventricular dP/dtmax as a function of concentration of Example 51.0 compared with vehicle in ex vivo naive Sprague Dawley rat hearts obtained using the Langendorff apparatus.
# FIG. 2B is a graph of left ventricular dP/dtmin as a function of concentration of Example 51.0 compared with vehicle in ex vivo naive Sprague Dawley rat hearts obtained using the Langendorff apparatus.
# isolated rat heart = experiment: Isolated rat heart assay with APJ agonist in the presence or absence of AT1R blocker losartan
# From the text: Evidence for Blockade of AT1R Signaling Enhances the APJ Receptor Signaling Using Ex-Vivo (Isolated Rat Heart Assay) and In Vivo (Myocardial Infraction (MI)-Induced Heart Failure Model)
# Naive Sprague Dawley® SD rats were anaesthetized and hearts were excised followed by cannulation in the Langendorff apparatus via aorta. The heart was perfused retrograde with modified oxygenated Krebs-Henseleit buffer. The pressure of the solution causes the aortic valve to shut and the perfusate was then forced into the ostium and the coronary vessels. This allowed the heart to beat for several hours. A balloon was inserted into the left ventricle to measure dp/dtmax as an index of cardiac contractility. The APJ agonist (Example 56.0) was perfused in the presence or absence of AT1R blocker losartan.
# [3] = tested on: MI-induced heart failure rats; experiment: Cardiovascular effects of Example 56.0 and captopril/losartan on MI-induced heart failure rats; assay type: in vivo, rat
# Procedure: Cardiovascular Effects of Example 56.0 and Captopril/Losartan on MI-Induced Heart Failure Rats
# Male Lewis rats at 2-3 months of age were used for the study. MI was induced by ligation of the LAD. Echocardiography (Echo) was performed at one-week post-MI on rats for verification of infarct size and animal enrollment Animals with ejection fractions more than 40% or no visible infarct in myocardium were excluded from the study. All eligible MI rats were randomly divided into 3 groups: 1) those treated with vehicle; 2) those treated with losartan (0.5 g/L in drink water); and 3) those treated with captopril (0.5 g/L in drink water). Treatments were initiated approximately five weeks post-MI and animals were continuously treated with losartan and captopril in drinking water up to 15 days prior to being assigned into each subgroup. These subgroup groups included the following: 1) cohort treated with vehicle; 2) cohort treated with Example 56.0 at various doses; 3) cohort treated only with losartan; 4) cohort treated with losartan and Example 56.0 at various doses; 5) cohort treated only with captopril; and 6) cohort treated with captopril and Example 56.0 at various doses. A Millar PV catheter was inserted into the right common carotid artery and then advanced to the left ventricle (LV) for cardiac hemodynamic assessment and the peripheral arterial pressure was also monitored by a pressure transducer via a femoral artery access in all rats. Following hemodynamic stabilization, baseline steady-state data was acquired Animals in any Example 56 treated group received intravenous infusion of Example 56.0 in a dose-escalated fashion during cardiac hemodynamic assessment. Blood was drawn for actual PK exposure to derive a PK/PD profile.
# APJ receptor [4] = target: T1, APJ receptor; experiment: [35S]GTPγS binding assay on membranes from CHO cells stably expressing human APJ receptor; assay type: biochemical; conditions: membranes of CHO cells stably expressing human APJ receptor, means of several independent experiments, read-out: Activity hAPJ SPA EC50 IP
# Procedure, shortened: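 EC50 values were obtained by non-linear regression of [35S]GTPγS (0.2 nM) binding after 90 min at RT, with nonspecific binding defined by 100 μM GTPγS. Reactions used human APJ–expressing CHO cell membranes on WGA PS beads in HEPES pH 7.5 buffer with 5 mM MgCl2, 200 mM NaCl, 3 μM GDP and 0.1% BSA.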
# [5] = tested on: isolated perfused rat hearts; experiment: Ex vivo isolated perfused rat heart (Langendorff) assay, load independent inotropic/lusitropic effects; conditions: percent change over vehicle
# From the text: Evidence for Load Independent Inotropic Effects with APJ Agonists Using Ex Vivo Assay (Isolated Perfused Rat Hearts)
# Naive Sprague Dawley® SD rats (Harlan laboratories (Livermore, Calif. USA)) were anaesthetized and hearts were excised followed by cannulation in the Langendorff apparatus (Harvard apparatus, Holliston, Mass. USA) via aorta. The heart was perfused retrograde with modified oxygenated Krebs-Henseleit buffer (Skrzypiec-Spring M et al., (2007) J. Pharmacol Toxicol Methods 55: 113-126). The pressure of the solution causes the aortic valve to shut and the perfusate is then forced into the ostium and the coronary vessels. This allows the heart to beat for several hours. A balloon was inserted into the left ventricle (LV) to measure dP/dtmax (derivative of left ventricular pressure) as an index of cardiac contractility. The APJ agonist was perfused constantly in a dose dependent manner into the heart to examine cardiac contractility.
# Example 210.0 was infused at different concentrations and load independent contractility was measured by index of LV dP/dtmax and the results are expressed as a percent change over vehicle. […] Example 210.0 was infused at different concentrations and load independent lusitropic effect (relaxation) was measured by index of LV dP/dtmin where results are expressed as percent change over vehicle. […] Example 51.0 was infused at different concentrations and load independent contractility was measured by index of LV dP/dtmax and the results are expressed as a percent change over vehicle. […] Example 51.0 was infused at different concentrations and load independent lusitropic effect (relaxation) was measured by index of LV dP/dtmin where results are expressed as percent change over vehicle.
# heart failure rat model = experiment: In vivo cardiac contractility in heart failure (MI) rat model; conditions: heart failure rats (LAD ligation), acute administration for 30 min
# Procedure: Evidence for Improvement in Cardiac Contractility In Vivo in Heart Failure Rat Model
# Based on the ex vivo findings in isolated heart assay, APJ agonists were dosed in vivo to investigate the translation of cardiac contractility in in vivo settings. Male Lewis rats (Charles River, USA) at 2-3 months of age were used for the study. Heart failure was induced by permanent ligation of the left descending coronary artery which results in injury to the heart with an ejection fraction of <35%. APJ agonists were administered dose dependently acutely for a period of 30 min. Administration of example compounds lead to an increase in cardiac contractility as measured by dP/dtmax (derivative of left ventricular pressure) (Table 27).
# [6] = isolated perfused rat hearts, compared with vehicle / control (DMSO)
# [7] = losartan alone compared to control (DMSO)
# [8] = Example 56.0 alone over vehicle, intravenous infusion, MI rats
# T1 sequence (P35414 whole entry, the tested form may be a part): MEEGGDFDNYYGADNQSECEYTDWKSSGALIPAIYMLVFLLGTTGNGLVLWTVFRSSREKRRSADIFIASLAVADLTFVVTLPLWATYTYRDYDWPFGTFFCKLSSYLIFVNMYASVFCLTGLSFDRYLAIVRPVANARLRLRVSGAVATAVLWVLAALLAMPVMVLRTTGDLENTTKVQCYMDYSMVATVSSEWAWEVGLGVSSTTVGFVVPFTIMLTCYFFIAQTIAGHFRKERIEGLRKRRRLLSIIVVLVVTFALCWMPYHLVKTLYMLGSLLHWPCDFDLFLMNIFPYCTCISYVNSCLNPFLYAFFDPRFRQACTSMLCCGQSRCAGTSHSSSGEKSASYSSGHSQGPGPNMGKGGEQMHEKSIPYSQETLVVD
molecule,measurement,setting,value
apelin-17,in vitro activity (relative potency),APJ receptor [1],approximately equipotent
"Apelin-36 (LVQPRGSRNGPGPWQGGRRKFRRQRPRLSHKGPMPF; Apelin-36; UniProt Q9ULZ1 42-77, looked up)",in vitro activity (relative potency),APJ receptor [1],approximately equipotent
CCCCc1nc(Cl)c(CO)n1Cc1ccc(-c2ccccc2-c2nn[nH]n2)cc1 [losartan],left ventricular (LV) developed pressure (DevP),[2]; compared with control (DMSO),no impact on developed pressure
same,left ventricular (LV) systolic pressure (Sys),[2]; compared with control (DMSO),no impact on systolic pressure
same,left ventricular dP/dtmax (cardiac contractility),[2]; [6],no impact on cardiac contraction
same,left ventricular dP/dtmin (cardiac relaxation),[2]; [6],no impact on cardiac relaxation
same,cardiac contraction (dp/dtmax),isolated rat heart; [7],did not have any impact
same,cardiac relaxation (dp/dtmin),isolated rat heart; [7],did not have any impact
same,developed pressure (DevP),isolated rat heart; [7],did not have any impact
same,systolic pressure (Sys),isolated rat heart; [7],did not have any impact
"C[C@H](CS)C(=O)N1CCC[C@H]1C(=O)O [Captopril, captopril, reference compound]",contractility or ejection fraction,"[3]; captopril alone, acute settings, heart failure rats in vivo",does not show a marked improvement
"COc1cccc(OC)c1-n1c(NS(=O)(=O)[C@@H](C)[C@H](C)c2ncc(F)cn2)nnc1-c1ccc(C)o1 [Example 56.0, (2S,3R)—N-(4-(2,6-dimethoxyphenyl)-5-(5-methyl-2-furanyl)-4H-1,2,4-triazol-3-yl)-3-(5-fluoro-2-pyrimidinyl)-2-butanesulfonamide]",EC50,APJ receptor [4],0.071 nM
same,Isolated Heart Assay dP/dtmax (%),[5]; contractility,23.0%
same,Isolated Heart Assay dP/dtmin (%),[5]; relaxation,24.9%
same,MI Rat Model dP/dtmax (%),heart failure rat model,30%
same,inotropic effects,isolated rat heart; APJ agonist alone,dose-dependent increase
same,Emax on co-infusion of AT1R blocker losartan,isolated rat heart; co-infusion of losartan,increased
same,increase of potency on co-infusion of AT1R blocker losartan,isolated rat heart; co-infusion of losartan,5 fold
same,heart rate,"[3]; Example 56.0 alone or in combination with an ARB or ACE inhibitor, MI rats",did not significantly change
same,dp/dtmax,[3]; [8],increase
same,ejection fraction,[3]; [8],increase
same,contractile function,"[3]; plus losartan or captopril, over Example 56.0 therapy alone, MI rats",further augmented
